Values quoted from earlier work, collected in article PMC4682187, “Fusarinine C, a novel siderophore‐based bifunctional chelator for radiolabeling with Gallium‐68” (Journal of Labelled Compounds & Radiopharmaceuticals, 2015).

What was measured:
[1] = ^68Ga complex of TAFC
From the text: To evaluate this hypothesis, a RGD peptide targeting the ...

[2] = dilution of DFO; at nanomolar level (<50 nM) DFO does not act as a good chelating agent for gallium
From the text: Caraco et al. reported that dilution of DFO, an acyclic analogue of FSC, could cause the breakdown of the ^67Ga^3+–DFO complex.

Metabolic stability [1] | Stability of the complex on dilution [2] | SMILES
excellent metabolic stabilities |  | CC(=O)NC1CCCN(O)C(=O)/C=C(/C)CCOC(=O)C(NC(C)=O)CCCN(O)C(=O)/C=C(/C)CCOC(=O)C(NC(C)=O)CCCN(O)C(=O)/C=C(/C)CCOC1=O (centres unmarked) [TAFC, triacetylfusarinine]
 | breakdown | CC(=O)N(O)CCCCCNC(=O)CCC(=O)N(O)CCCCCNC(=O)CCC(=O)N(O)CCCCCN [^67Ga^3+–DFO complex, desferoxamine B, metal not drawn]
